In patent US12661410B2, “Compounds for targeted degradation of RET” (C4 Therapeutics, Inc., priority 2020, dated 2026):
Numbering of substitutions follows the chain as printed.

Tests used:
RET(KD: 658-1114 G810R) = molecular target: T1, RET(KD: 658-1114 G810R) (Homo sapiens, UniProt P07949, G810R); test: HiBiT-Degradation, RET G810R degradation assay (Nano-Glo HiBiT Lytic), 293T.165 cells; format: cell-based; conditions: for Emax / DC50: 6.0 hours; for Emax: % remaining protein, read-out: 293T.165 RET(KD: 658-1114 G810R) 6.0 hours (Emax); for DC50: half-maximal degradation concentration, read-out: 293T.165 RET(KD: 658-1114 G810R) 6.0 hours (DC50)
T1 construct: 658-1114; expressed in transfected cells; host or cells: 293T.165 (293T cells, generated in-house)
T1 sequence (P07949 658-1114 G810R): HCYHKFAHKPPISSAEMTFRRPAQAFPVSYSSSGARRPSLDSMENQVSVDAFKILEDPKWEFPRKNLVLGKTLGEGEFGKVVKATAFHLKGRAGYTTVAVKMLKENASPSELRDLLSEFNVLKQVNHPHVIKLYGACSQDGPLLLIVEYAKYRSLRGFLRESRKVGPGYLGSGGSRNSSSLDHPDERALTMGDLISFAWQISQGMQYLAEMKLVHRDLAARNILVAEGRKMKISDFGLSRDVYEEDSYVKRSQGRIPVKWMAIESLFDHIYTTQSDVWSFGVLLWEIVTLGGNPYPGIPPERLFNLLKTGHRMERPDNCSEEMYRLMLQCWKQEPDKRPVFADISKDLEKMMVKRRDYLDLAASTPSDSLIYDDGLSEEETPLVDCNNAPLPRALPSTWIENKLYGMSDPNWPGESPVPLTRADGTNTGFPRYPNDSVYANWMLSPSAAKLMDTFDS
Outline: (§1)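 HEK293T lines stably expressing HiBiT-tagged RET kinase domain (WT: 293T.144; G810R: 293T.165) were treated with degraders for 6 h in duplicate, 11-point half-log series from 10 μM top dose. Lysis with Nano-Glo HiBiT Lytic reagent, luminescence read; DC50 and Emax (% remaining protein) derived from dose-response curves.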

RET (658-1114) = molecular target: T2, RET (658-1114) (Homo sapiens, UniProt P07949); test: HiBiT-Degradation, RET wild-type degradation assay (Nano-Glo HiBiT Lytic), 293T.144 cells; format: cell-based; conditions: for Emax / DC50: 6.0 hours; for Emax: % remaining protein, read-out: 293T.144 RET (658-1114) 6.0 hours (Emax); for DC50: half-maximal degradation concentration, read-out: 293T.144 RET (658-1114) 6.0 hours (DC50)
T2 construct: 658-1114; expressed in transfected cells; host or cells: 293T.144 (293T cells, generated in-house)
T2 sequence (P07949 658-1114): T1 sequence (P07949 658-1114 G810R) with R153G
Outline: as §1

Row | Compound | 293T.165 RET(KD: 658-1114 G810R) 6.0 hours (IP) [nM] (RET(KD: 658-1114 G810R)) | Emax (RET(KD: 658-1114 G810R)) [%] | DC50 (RET(KD: 658-1114 G810R)) [µM] | 293T.144 RET (658-1114) 6.0 hours (IP) [nM] (RET (658-1114)) | Emax (RET (658-1114)) [%] | DC50 (RET (658-1114)) [µM]
1 | N#Cc1cnn2cc(-c3ccc(N4CCN(C(=O)CC5(O)CCN(c6ccc(NC7CCC(=O)NC7=O)cc6F)CC5)CC4)cc3)nc(-c3ccc(N4CC5CC(C4)N5Cc4ccccc4)nc3)c12 (stereo not drawn) [Compound 177, 4-(6-(6-benzyl-3,6-diazabicyclo[3.1.1]heptan-3-yl)pyridin-3-yl)-6-(4-(4-(2-(1-(4-((2,6-dioxopiperidin-3-yl)amino)-2-fluorophenyl)-4-hydroxypiperidin-4-yl)acetyl)piperazin-1-yl)phenyl)pyrazolo[1,5-a]pyrazine-3-carbonitrile] | ++++ (<50 nM = ++++) | < 30 | < 0.1 | ++++ (<50 nM = ++++) | < 30 | < 0.05
2 | COc1cc(N2CCN([C@H]3CC[C@H](n4cc(-c5cn6ncc(C#N)c6c(-c6ccc(N7CC8COCC(C7)N8C(=O)OC(C)(C)C)nc6)n5)cn4)CC3)CC2)c(F)cc1NC1CCC(=O)NC1=O (relative stereo) [Compound 163, tert-butyl 7-[5-[3-cyano-6-[1-[4-[4-[4-[(2,6-dioxo-3-piperidyl)amino]-2-fluoro-5-methoxy-phenyl]piperazin-1-yl]cyclohexyl]pyrazol-4-yl]pyrazolo[1,5-a]pyrazin-4-yl]-2-pyridyl]-3-oxa-7,9-diazabicyclo[3.3.1]nonane-9-carboxylate] | ++++ (<50 nM = ++++) | < 30 | < 0.1 | ++++ (<50 nM = ++++) | < 30 | < 0.05
3 | N#Cc1cnn2cc(-c3cnn([C@H]4CC[C@@H](N5CCN(c6ccc(NC7CCC(=O)NC7=O)cc6F)CC5)CC4)c3)nc(-c3ccc(N4C[C@H]5COC[C@@H](C4)N5Cc4ccc(F)cn4)nc3)c12 (single isomer, unassigned) [Compound 151] | ++++ (<50 nM = ++++) | < 30 | < 0.05 | ++++ (<50 nM = ++++) | < 30 | < 0.05
4 | CCC1(NC(=O)c2ncccc2Cl)CCN(c2ccc(-c3nc(-c4cnn([C@H]5CC[C@@H](N6CCN(c7ccc8c(N9CCC(=O)NC9=O)nn(C)c8c7F)CC6)CC5)c4)cn4ncc(C#N)c34)cn2)CC1 (single isomer, unassigned) [Compound 170, 3-Chloro-N-(1-(5-(3-cyano-6-(1-((1s, 4s)-4-(4-(3-(2,4-dioxotetrahydropyrimidin-1(2H)-yl)-7-fluoro-1-methyl-1H-indazol-6-yl)piperazin-1-yl)cyclohexyl)-1H-pyrazol-4-yl)pyrazolo[1,5-a]pyrazin-4-yl)pyridin-2-yl)-4-ethylpiperidin-4-yl)picolinamide] | ++++ (<50 nM = ++++) | < 30 | < 0.1 | ++++ (<50 nM = ++++) | < 30 | < 0.05
5 | COc1ccc(CN2[C@@H]3COC[C@H]2CN(c2ccc(-c4nc(-c5cnn([C@H]6CC[C@@H](N7CCN(c8cc9c(cc8F)c(N8CCC(=O)NC8=O)nn9C)CC7)CC6)c5)cn5ncc(C#N)c45)cn2)C3)cn1 (single isomer, unassigned) [Compound 152] | ++++ (<50 nM = ++++) | < 30 | < 0.05 | ++++ (<50 nM = ++++) | < 30 | < 0.05
6 | N#Cc1cnn2cc(-c3cnn([C@H]4CC[C@H](N5CCN(c6c(F)cc(NC7CCC(=O)NC7=O)cc6F)CC5)CC4)c3)nc(-c3ccc(N4CC[C@H](OCc5ccccn5)C4)nc3)c12 (mixture of isomers) [Compound 211, 6-[1-[4-[4-[4-[(2,6-dioxo-3-piperidyl)amino]-2,6-difluoro-phenyl]piperazin-1-yl]cyclohexyl]pyrazol-4-yl]-4-[6-[rac-(3S)-3-(2-pyridylmethoxy)pyrrolidin-1-yl]-3-pyridyl]pyrazolo[1,5-a]pyrazine-3-carbonitrile] | ++++ (<50 nM = ++++) | < 30 | < 0.05 | ++++ (<50 nM = ++++) | < 30 | < 0.05

Now from value to compound:

Row | 293T.165 RET(KD: 658-1114 G810R) 6.0 hours (IP) [nM] (RET(KD: 658-1114 G810R)) | Emax (RET(KD: 658-1114 G810R)) [%] | DC50 (RET(KD: 658-1114 G810R)) [µM] | 293T.144 RET (658-1114) 6.0 hours (IP) [nM] (RET (658-1114)) | Emax (RET (658-1114)) [%] | DC50 (RET (658-1114)) [µM] | Compound
7 | ++++ (<50 nM = ++++) | < 30 | < 0.05 | ++++ (<50 nM = ++++) | < 30 | < 0.05 | CCC1(C(=O)NC2CCC2)CCN(c2ccc(-c3nc(-c4cnn([C@H]5CC[C@H](N6CCC(c7ccc(N[C@@H]8CCC(=O)NC8=O)cc7Cl)CC6)CC5)c4)cn4ncc(C#N)c34)cn2)CC1 (single isomer, unassigned) [Compound 131]
8 | +++ (<100 nM = +++) | < 30 | < 0.1 | ++++ (<50 nM = ++++) | < 30 | < 0.05 | N#Cc1cnn2cc(-c3cnn([C@H]4CC[C@@H](N5CCN(c6c(F)cc(NC7CCC(=O)NC7=O)cc6F)CC5)CC4)c3)nc(-c3ccc(N4CCC5(CC4)CCN5c4nccc(Cl)n4)nc3)c12 (single isomer, unassigned) [Compound 204, 4-(6-(1-(4-Chloropyrimidin-2-yl)-1,7-diazaspiro[3.5]nonan-7-yl)pyridin-3-yl)-6-(1-((1s, 4s)-4-(4-(4-((2,6-dioxopiperidin-3-yl)amino)-2,6-difluorophenyl)piperazin-1-yl)cyclohexyl)-1H-pyrazol-4-yl)pyrazolo[1,5-a]pyrazine-3-carbonitrile]
9 | ++++ (<50 nM = ++++) | < 30 | < 0.05 | ++++ (<50 nM = ++++) | < 30 | < 0.05 | CCC1(C(=O)NC(C)C)CCN(c2ccc(-c3nc(-c4cnn(C5CCN(C(=O)CC6(O)CCN(c7ccc(NC8CCC(=O)NC8=O)cc7Br)CC6)CC5)c4)cn4ncc(C#N)c34)cn2)CC1 (stereo not drawn) [Compound 95, 1-[5-[6-[1-[1-[2-[1-[2-bromo-4-[(2,6-dioxo-3-piperidyl)amino]phenyl]-4-hydroxy-4-piperidyl]acetyl]-4-piperidyl]pyrazol-4-yl]-3-cyano-pyrazolo[1,5-a]pyrazin-4-yl]-2-pyridyl]-4-ethyl-N-isopropyl-piperidine-4-carboxamide]
10 | ++++ (<50 nM = ++++) | < 30 | < 0.05 | ++++ (<50 nM = ++++) | < 30 | < 0.05 | N#Cc1cnn2cc(-c3cnn([C@H]4CC[C@H](N5CCC(c6ccc(N[C@H]7CCC(=O)NC7=O)cc6F)CC5)CC4)c3)nc(-c3ccc(N4CCC5(CC4)OCc4cccnc45)nc3)c12 (single isomer, unassigned) [Compound 179]
11 | ++++ (<50 nM = ++++) | < 30 | < 0.05 | ++++ (<50 nM = ++++) | < 30 | < 0.05 | CCC1(C(=O)NC2CCCC2)CCN(c2ccc(-c3nc(-c4cnn([C@H]5CC[C@H](N6CCC(c7ccc(N[C@@H]8CCC(=O)NC8=O)cc7F)CC6)CC5)c4)cn4ncc(C#N)c34)cn2)CC1 [Compound 142, 1-[5-[3-cyano-6-[1-[4-[4-[4-[[(3R)-2,6-dioxo-3-piperidyl]amino]-2-fluoro-phenyl]-1-piperidyl]cyclohexyl]pyrazol-4-yl]pyrazolo[1,5-a]pyrazin-4-yl]-2-pyridyl]-N-cyclopentyl-4-ethyl-piperidine-4-carboxamide]
